Measured values: publication PMC10785772 (Science translational medicine, 2023)
Converted amounts (≈) assume the structure as drawn. Like-named read-outs stand apart in the source and are kept apart here.

Tested on: E. coli strain NDM-1 (ATCC:BAA-2471)
Assay: MIC against multidrug-resistant sepsis-model strain
Assay type: cell-based

MIC (Escherichia coli, BAA2471) | Molecule | MIC
> 32 µg/mL | O=C(O)c1cn(C2CC2)c2cc(N3CCNCC3)c(F)cc2c1=O [ciprofloxacin] | 
 | colistin | 2.5 µg/mL
32 µg/mL (≈ 107 µM) | C[C@@H](O)[C@H]1C(=O)N2C(C(=O)O)=C(SCCN=CN)C[C@H]12 [imipenem] | 
